This is an account of results in US11123313B2, “Methods and compositions for treating sleep apnea” (The Brigham and Women's Hospital, Inc., priority 2017, dated 2021).

This test deals with obstructive sleep apnea (OSA) human patients. To be noted: seven OSA patients, 2 additional nights with single drugs.

Procedure: Subsequently, a placebo-controlled, double-blinded, randomized, crossover trial in 20 obstructive sleep apnea (OSA) human patients was performed. Participants received treatment (Atomoxetine 80 mg+Oxybutynin 5 mg) or placebo in randomized order 30 minutes before sleep. […] Data are expressed as median [25th-75th percentile]
Seven OSA patients were studied also on 2 additional nights in which the 2 drugs were administered alone (not in combination).
Group data was obtained using genioglossus electromyography in 16 out of 20 patients who took part to the original trial to determine the effect of Atomoxetine plus Oxybutynin (ato-oxy) on genioglossus muscle responsiveness. Muscle responsiveness reflects the change in genioglossus muscle electromyographic activity (percent of baseline) per change in esophageal pressure (Pes) swings during spontaneous breathing in non-REM sleep (see FIG. 10B for physiological context).

As for `CNCC[C@@H](Oc1ccccc1C)c1ccccc1` [Atomoxetine], the “AHI compared to placebo, drugs alone vs in combination” value is “did not improve the AHI”.

On to `CCN(CC)CC#CCOC(=O)C(O)(c1ccccc1)C1CCCCC1` (centres unmarked) [Oxybutynin], for which the “AHI compared to placebo, drugs alone vs in combination” value is “did not improve the AHI”.
